We go through nine compounds from article PMC12489727, “Malonyl-Caffeoylquinic Acids and Malonyl-Flavonoid-Glucosides from Three Edible Apiaceae Plants Anthriscus Cerefolium, Anthriscus Sylvestris, and Chaerophyllum Bulbosum” (ACS Omega, 2025).

Bounds are passed on as bounds.

For data set [1], the system named is human leukemia cells (MOLM-13). Also on record: method as in earlier work. Conditions: MOLM-13 cells; previously reported; ref 40 (Slimestad et al., 2022); cited from earlier work.
Data set [2] relates to noncancerous rat kidney epithelial cells (NRK). Also on record: method as in earlier work. Conditions: previously reported, ref 40 (Slimestad et al., 2022); cited from earlier work.
Data set [3] in a line: DPPH radical scavenging assay. Type of data set: biochemical. To be noted: 6 min incubation at room temperature, absorbance at 515 nm, triplicate. The protocol: A DPPH radical scavenging assay was conducted following a previously published protocol, as detailed in the Supporting Information.
Antioxidant Activity Tests. A DPPH radical scavenging assay was used according to a previously
published protocol.13 Serial dilutions of compounds (prepared in methanol) were incubated with
DPPH solution for 6 min at room temperature. The reduction in absorbance was measured with a
HITACHI U-2000 spectrophotometer (Hitachi Ltd., Tokyo, Japan) at 515 nm. […]
On the technique in general: The DPPH test is a chemical assay of radical scavenging.

The test system of another data set is Vero E6 cells. The data set can be described thus: In vitro cytostatic effect, Alamar Blue viability assay, Vero E6. The class given is cell-based, African green monkey. Conditions: then 72 h culture. The protocol:
(§1) The cytostatic effects of the compounds were evaluated in vitro on various cancer cells and noncancerous Vero E6 cells using the Alamar Blue viability assay, as detailed in the Supporting Information.
(§2) The cytostatic effects of MDiCQAs and FMGls were evaluated in vitro using the Alamar Blue viability assay on five human cancer cell lines: colorectal carcinoma (HT-29), glioma (U87), hepatocellular carcinoma (HepG2), promyelocytic leukemia (HL-60), and melanoma (A2058). They were also tested on nontumorous Vero E6 cells, kidney epithelial cells from an African green monkey, to evaluate the selectivity of the compounds. […] The two effective MDiCQAs (4 and 9) share a common structural feature: their central quinic acid core is substituted with caffeoyl moieties at the C-1 and C-5 positions and a malonyl group at the C-3 position. In contrast, the ineffective compound 7 has caffeoyl moieties at the same positions, but its malonyl group is attached to the C-4 position instead of C-3. Similarly, in the other ineffective MDiCQAs (5 and 6), the malonyl unit is also located at the C-4 position, while their caffeoyl groups are positioned at C-3 and C-5. […] The results also indicate a high degree of isomer-specificity in the cytostatic activity of MDiCQAs. […] In particular, the inhibition of Vero E6 cells by the MDiCQAs (4 and 9) can be considered as a strong effect, and that of the FMGl (3) as a weaker one, with IC50 values below 10 μM and around 40 μM, respectively. […]
(§3) Determination of the In Vitro Cytostatic Effects of Compounds. In vitro, the cytostatic effect of the compounds was determined on various human tumor- and non-human primate Vero E6 cells using Alamar Blue end-point viability assay. Cells were cultured in DMEM medium supplemented with 10% FBS, 2 mM L-glutamine, 50 IU/mL penicillin/50 µg/mL streptomycin antibiotic cocktail, 1 mM sodium pyruvate and 1% non-essential amino acid mixture at 37 °C in a humidified atmosphere with 5% CO2. At the confluent state, cells were plated into 96-well tissue culture plates with the initial cell number of 5.0×10^3 cells/well. Cells were treated with the compounds after 24 hours in a serum-free medium containing 1.0% (v/v) DMSO at 0.08 -100 µM concentration. Control cells were treated with serum-free medium or DMSO (c=1.0%, v/v ) containing serum-free medium. After overnight incubation, cells were washed twice with a serum-free medium; then, they were cultured for another 72 hours in the complete culturing medium at 37 °C. Following that, 22.5 µL Alamar Blue (resazurin sodium salt, Merck) solution (0.15 mg/mL in PBS) was added to each well and after 4 hrs of incubation, the fluorescence was measured at λEx = 530/30 and λEM = 610/10 nm using a Synergy H4 multi-mode microplate reader (BioTek). All measurements were performed in quadruplets, and the mean IC50 values and ± SEM were represented.
(Resazurin is reduced to fluorescent resorufin, in cell work by metabolically active cells.)

Another data set concerns melanoma (A2058). As to the kind of experiment: In vitro cytostatic effect, Alamar Blue viability assay, A2058. Type of data set: cell-based, human. To be noted: A2058 cells, overnight treatment 0.08-100 µM, then 72 h culture. The protocol: as §1, §2, §3
Another data set concerns glioma (U87). As to the kind of experiment: In vitro cytostatic effect, Alamar Blue viability assay, U87. Type of data set: cell-based, human. To be noted: U87 cells, overnight treatment 0.08-100 µM, then 72 h culture. The protocol:
as §1, §2, §3

Data set [4] has as its system promyelocytic leukemia (HL-60). The data set can be described thus: In vitro cytostatic effect, Alamar Blue viability assay, HL-60. To be noted: HL-60 cells, overnight treatment 0.08-100 µM, then 72 h culture. Type of data set: cell-based, human. The protocol: as §1, §2
as §3, with “All measurements were performed in quadruplets, and the mean IC50 values and ± SEM were represented.” left out

Data set [5] concerns hepatocellular carcinoma (HepG2). As to the kind of experiment: In vitro cytostatic effect, Alamar Blue viability assay, HepG2. The class given is cell-based, human. Conditions: HepG2 cells, overnight treatment 0.08-100 µM, then 72 h culture. The protocol: as §1, §2, §3
Data set [6] concerns colorectal carcinoma (HT-29). The data set can be described thus: In vitro cytostatic effect, Alamar Blue viability assay, HT-29. The class given is cell-based, human. Conditions: HT-29 cells, overnight treatment 0.08-100 µM, then 72 h culture. The protocol:
as §1, §2, §3

[7] abbreviates: overnight treatment 0.08-100 µM.
The mark [8] stands for this setting: Chlorocebus sabaeus, Vero C1008, 72 h, overnight treatment 0.08-100 µM.

As to 1,3-dicaffeoyl-5-malonyl-δ-quinide, the in vitro cytotoxicity result in data set [1] and in [2] was “nonselective in vitro cytotoxicity” in each case.
For orientation: IC50 means the point on the concentration scale where inhibition reaches its midpoint. In data set [3], `O=C(O)CC(=O)OC[C@H]1O[C@@H](Oc2c(-c3ccc(O)c(O)c3)oc3cc(O)cc(O)c3c2=O)[C@H](O)[C@@H](O)[C@@H]1O` [Compound 1, quercetin-3-O-(6″-O-malonyl)-β-D-glucoside] displayed an IC50 of 22.5 ± 0.6 µM.
Still for that read-out and setting: for `O=C(O)CC(=O)OC[C@H]1O[C@@H](Oc2cc(O)c3c(=O)cc(-c4ccc(O)c(O)c4)oc3c2)[C@H](O)[C@@H](O)[C@@H]1O` [Compound 2, luteolin-7-O-(6″-O-malonyl)-β-D-glucoside] the value was 7.8 ± 0.4 µM.
As for `O=C(O)CC(=O)OC[C@H]1O[C@@H](Oc2c(-c3ccc(O)cc3)oc3cc(O)cc(O)c3c2=O)[C@H](O)[C@@H](O)[C@@H]1O` [Compound 3, kaempferol-3-O-(6″-O-malonyl)-β-D-glucoside], the half-inhibitory concentration (IC50) in data set [3] came out at 233.9 ± 0.9 µM; with Vero E6 cells (setting [7]) it was 39.8 ± 2 µM; in the data set on melanoma (A2058) it was 21 ± 3 µM; in the data set with glioma (U87), 86.3 ± 9.4 µM; in data set [4], 51.4 ± 6.7 µM; in data set [5] it was 27.5 ± 3.4 µM. Besides, the IC50 in data set [6] is above 100 µM.
On to `O=C(O)CC(=O)OC1CC(OC(=O)C=Cc2ccc(O)c(O)c2)(C(=O)O)CC(OC(=O)C=Cc2ccc(O)c(O)c2)C1O` (stereo not drawn) [Compound 4, 1,5-Dicaffeoyl-3-malonylquinic Acid], for which the IC50 in the data set on Vero E6 cells (setting [8]) was below 10 µM; in the data set with Vero E6 cells (setting [7]) it was 9.9 ± 1.4 µM; with melanoma (A2058) (Homo sapiens) it was 13.5 ± 1.5 µM; with glioma (U87) (Homo sapiens, U-87 MG), above 100 µM; in data set [4] (Homo sapiens) it was 29.7 ± 4.6 µM; in data set [5] (Homo sapiens), 25.6 ± 2.3 µM. Also, the half-maximal inhibitory concentration (IC50) in data set [6] (Homo sapiens) is above 100 µM.
Regarding `O=C(O)CC(=O)OC[C@H]1O[C@@H](Oc2cc(O)c3c(=O)cc(-c4ccc(O)c(O)c4)oc3c2)[C@H](OC(=O)CC(=O)O)[C@@H](O)[C@@H]1O` [Compound 8, Luteolin-7-O-(2″,6″-di-O-malonyl)-β-D-glucoside], the IC50 was 14.8 ± 0.6 µM in [3]; above 100 µM in the data set on Vero E6 cells (setting [8]); above 100 µM with melanoma (A2058) (Homo sapiens); above 100 µM in the data set on glioma (U87) (Homo sapiens, U-87 MG); above 100 µM in data set [5] (Homo sapiens); above 100 µM in [6] (Homo sapiens).
Regarding `O=C(O)CC(=O)OC1CC(OC(=O)C=Cc2ccc(O)c(O)c2)(C(=O)O)CC(OC(=O)C=Cc2ccc(O)c(O)c2)C1OC(=O)CC(=O)O` (stereo not drawn) [Compound 9, 1,5-Dicaffeoyl-3,4-dimalonylquinic Acid], the IC50 in data set [3] is 13.6 ± 0.4 µM; in the data set on Vero E6 cells (setting [8]), below 10 µM; in the data set with Vero E6 cells (setting [7]), 9.5 ± 3.1 µM; in the data set with melanoma (A2058) (Homo sapiens), 11.9 ± 2.2 µM; in the data set on glioma (U87) (Homo sapiens, U-87 MG), 48.5 ± 4.6 µM; in [4] (Homo sapiens), above 100 µM. In addition, the IC50 is above 100 µM in data set [5] (Homo sapiens) and 47.9 ± 2.3 µM in data set [6] (Homo sapiens).
In the case of `COc1cccc2c1C(=O)c1c(O)c3c(c(O)c1C2=O)C[C@@](O)(C(C)=O)C[C@@H]3O[C@H]1C[C@H](N)[C@H](O)[C@H](C)O1` [Daunomycin, reference compound], the half-maximal inhibitory concentration (IC50) with Vero E6 cells (Chlorocebus sabaeus, Vero C1008, overnight treatment 0.08-100 µM) is 1.7 ± 0.5 µM; with melanoma (A2058) (Homo sapiens), 0.2 ± 0.01 µM; with glioma (U87) (Homo sapiens, U-87 MG), 0.6 ± 0.05 µM; in [4] (Homo sapiens), 0.16 ± 0.03 µM; in data set [5] (Homo sapiens) it was 0.54 ± 0.15 µM; in data set [6] (Homo sapiens) it was 0.9 ± 0.1 µM.
In data set [3], `Cc1c(C)c2c(c(C)c1O)CCC(C)(C(=O)O)O2` (stereo not drawn) [Trolox, reference compound] returned an IC50 of 18.4 ± 0.1 µM.
